Laboratory results from paper PMC6968633, “Synthesis, antibacterial and anticancer activity, and docking study of aminoguanidines containing an alkynyl moiety” (Journal of Enzyme Inhibition and Medicinal Chemistry, 2019).
Values after ≈ are worked out from the molar mass of the structure shown.

What was measured:
[1] = test system: Staphyiococcus aureus CMCC 25923; experiment: Antibacterial MIC, serial dilution; format: cell-based, Staphylococcus aureus; conditions: Staphylococcus aureus, CMCC25923; S. aureus CMCC 25923, 24 h, 37 °C; read-out: MIC
Experimental: (§1) Test bacteria were grown to mid-log phase in Mueller–Hinton broth (MHB) or Tryptone Soya Broth (TSB) and diluted 1000-fold in the same medium. Bacteria (10^5 CFU/mL) were inoculated into MHB or TSB and dispensed at 0.2 ml/well into a 96-well microtiter plate. As positive controls, gatifloxacin, moxifloxacin, norfloxacin, oxacillin, and penicillin were used. […] Bacterial growth was determined by measuring the absorption at 630 nm using a microplate reader. All experiments were carried out three times.
(§2) The evaluation of antibacterial activity of all compounds (3a–3j and 6a–6k) was performed by a serial dilution method to determine the MIC against a panel of pathogens comprising five Gram-positive strains (S. aureus (CMCC(B) 26003 and CMCC 25923), Streptococcus mutans BNCC 336931, Enterococcus faecalis CMCC 29212, and Bacillus subtilis CMCC 63501), four Gram-negative strains (E. coli (CMCC 25922 and CMCC 44568) and P. aeruginosa (CMCC 27853 and CMCC 10104)), as well as three methicillin-resistant clinical isolates (S. aureus ATCC 43300 and ATCC 33591, P. aeruginosa ATCC BAA-2111). The results are described in Tables 1 and 2. Gatifloxacin, moxifloxacin, norfloxacin, oxacillin, and penicillin were used as positive controls.

[2] = test system: Bacillus subtilis CMCC 63501; experiment: Antibacterial MIC, serial dilution; format: cell-based; conditions: Bacillus subtilis, CMCC63501; B. subtilis CMCC 63501, 24 h, 37 °C; read-out: MIC
Experimental: as §1, §2

[3] = test system: Enterococcus faecalis CMCC 29212; experiment: Antibacterial MIC, serial dilution; format: cell-based; conditions: Enterococcus faecalis, CMCC29212; E. faecalis CMCC 29212, 24 h, 37 °C; read-out: MIC
Experimental: as §1, §2

[4] = test system: Escherichia coli CMCC 25922; experiment: Antibacterial MIC, serial dilution; format: cell-based; conditions: Escherichia coli, CMCC25922; E. coli CMCC 25922, 24 h, 37 °C; read-out: MIC
Experimental: as §1, §2

[5] = test system: Escherichia coli CMCC 44568; experiment: Antibacterial MIC, serial dilution; format: cell-based; conditions: Escherichia coli, CMCC44568; E. coli CMCC 44568, 24 h, 37 °C; read-out: MIC
Experimental: as §1, §2

[6] = test system: Pseudomonas aeruginosa CMCC 10104; experiment: Antibacterial MIC, serial dilution; format: cell-based; conditions: Pseudomonas aeruginosa, CMCC10104; P. aeruginosa CMCC 10104, 24 h, 37 °C; read-out: MIC
Experimental: as §1, §2

[7] = test system: Pseudomonas aeruginosa CMCC 27853; experiment: Antibacterial MIC, serial dilution; format: cell-based; conditions: Pseudomonas aeruginosa, CMCC27853; P. aeruginosa CMCC 27853, 24 h, 37 °C; read-out: MIC
Experimental: as §1, §2

[8] = test system: Staphylococcus aureus CMCC(B)26003; experiment: Antibacterial MIC, serial dilution; format: cell-based; conditions: Staphylococcus aureus; S. aureus CMCC(B)26003, 24 h, 37 °C; read-out: MIC
Experimental: as §1, §2

[9] = test system: Streptococcus mutans BNCC 336931; experiment: Antibacterial MIC, serial dilution; format: cell-based; conditions: Streptococcus mutans, BNCC336931; S. mutans BNCC 336931, 24 h, 37 °C; read-out: MIC
Experimental: as §1, §2

[10] = test system: Pseudomonas aeruginosa ATCC BAA-2111; experiment: Antibacterial MIC, multidrug-resistant clinical isolate; format: cell-based; conditions: ATCCBAA2111, multidrug-resistant P. aeruginosa ATCC BAA-2111
Experimental: as §1, §2

[11] = test system: Staphylococcus aureus ATCC 33591; experiment: as above; format: cell-based; conditions: Staphylococcus aureus, ATCC33591; multidrug-resistant S. aureus ATCC 33591; read-out: MIC
Experimental: as §1, §2

[12] = test system: Staphylococcus aureus ATCC 43300; experiment: as above; format: cell-based; conditions: Staphylococcus aureus, ATCC43300; multidrug-resistant S. aureus ATCC 43300; read-out: MIC
Experimental: as §1, §2

A549 = experiment: Cytotoxicity, CCK-8 assay; format: cell-based; conditions: Homo sapiens, A549 lung cancer cells, 48 h
Experimental: (§3) A lung cancer cell line (A549), gastric cancer cell line (SGC7901) and human hepatocytes (L02) were used to test the anticancer activity and cytotoxicity of the new compounds. 5-Fluorouracil (5-FU) was used as the positive control against cancer cell lines. The A549, SGC7901 and L02 cells were grown in Dulbecco’s modified Eagle’s medium (DMEM) supplemented with 10% foetal bovine serum (FBS) and antibiotics (100 U/mL penicillin-streptomycin). Cells at 80–90% confluence were split by trypsin (0.25% in PBS; pH 7.4), and the medium was changed at 24 h intervals. The cells were cultured at 37 °C in a 5% CO2 incubator. The cells were passaged three times, then approximately 1 × 10^4 cells were seeded into each well of a 96-well plate and allowed to incubate to allow attachment of the cells to the surface. After 24 h, the medium was replaced with DMEM supplemented with 10% FBS containing various concentrations (0.1, 0.3, 1, 3, 10, and 30 μg/mL) of test compounds. Each concentration was tested in triplicate. After 48 h treatment, 20 µL of CCK-8 solution was added to each well and the optical density measured at 450 nm after 3 h using a microplate reader. The IC50 values were defined as the concentrations inhibiting 50% of cell growth.

SGC7901 = experiment: Cytotoxicity, CCK-8 assay; format: cell-based; conditions: Homo sapiens, SGC-7901, SGC7901 gastric cancer cells, 48 h
Experimental: as §3

L02 = experiment: Cytotoxicity, CCK-8 assay, normal cell line; format: cell-based; conditions: L02 normal human hepatocytes, 48 h
Experimental: as §3

[13] = test system: Escherichia coli CMCC 44568; experiment: Bacterial resistance development, serial passaging at sub-MIC; format: cell-based; conditions: E. coli, passaging at MIC/2
Experimental: (§4) To evaluate the propensity for developing bacterial resistance, one of the compounds with high antibacterial activity (3g) was used. The initial MIC values of 3g were determined against bacteria Staphylococcus aureus CMCC 25923 and Escherichia coli CMCC 44568, using norfloxacin and colistin, respectively, as antibiotic controls. Subsequently, serial passaging was initiated by transferring bacterial suspension grown at the sub-MIC of the compound/antibiotics (MIC/2) to a new plate and subjecting it to another assay to determine the (new) MIC. After 22 h incubation, cells grown at the sub-MIC of the test compound/antibiotics were once again transferred and the MIC determined. The process was repeated for 20 or 30 passages for S. aureus and E. coli, respectively. The MIC for 3g, norfloxacin and colistin was plotted as a function of time in days (number of passages) to determine the propensity of bacterial resistance development.
(§5) Bacterial resistance against most antibiotics presents a major problem of current times. Therefore, it is crucial to evaluate the potential emergence of bacterial resistance against these biocides. […] Norfloxacin, an antibiotic generally used to treat the Gram-positive infections, was used as a positive control for S. aureus, whereas colistin, a lipopeptide antibiotic active against Gram-negative bacteria, was used as a positive control for E. coli. These antibacterial agents were repeatedly challenged against bacteria at their sub-MIC values to allow bacteria to develop resistance. Resistance is usually defined as a > 4-fold increase in the original MIC[32].

[14] = test system: Staphylococcus aureus CMCC 25923; experiment: as above; format: cell-based; conditions: S. aureus, passaging at MIC/2, 20 passages
Experimental: as §4, §5

[15] = test system: Methicillin-resistant S. aureus ATCC 33591; experiment: Bactericidal time-kill assay; format: cell-based, Staphylococcus aureus; conditions: MRSA; for nature of antibacterial effect in time-kill assay: 1 × MIC and 2 × MIC
Experimental: Methicillin-resistant S. aureus ATCC 33591 grown in MHB was used to determine time-kill kinetics. Bacterial suspensions (10^5 CFU/mL) containing test compounds (norflocaxin, compound 3g) at final concentrations of 1 × MIC and 2 × MIC were incubated at 37 °C with shaking. Aliquots (10 μL) were removed from the cultures after 0, 0.5, 1, 2, 3, 4, 6, 8 and 12 h, serially diluted 1000-fold in nutrient solution, and plated onto sterile Mueller-Hinton agar medium. Plates were then incubated for 24 h at 37 °C, the number of CFU was counted, and the total bacterial log10 CFU/mL was determined.

tested bacterial strains = experiment: Antibacterial MIC, panel of tested bacterial strains; format: cell-based; conditions: against almost all of the tested strains
Experimental: as §1, §2

Compound	MIC [1] [µg/mL]	MIC [2] [µg/mL]	MIC [3] [µg/mL]	MIC [4] [µg/mL]	MIC [5] [µg/mL]	MIC [6] [µg/mL]	MIC [7] [µg/mL]	MIC [8] [µg/mL]	MIC [9] [µg/mL]	MIC [10] [µg/mL]	MIC [11] [µg/mL]	MIC [12] [µg/mL]	IC50 (A549) [µg/mL]	IC50 (SGC7901) [µg/mL]	IC50 (L02) [µg/mL]	increase in MIC on serial passaging [14]	nature of antibacterial effect in time-kill assay [15]	melting point [°C]	MIC (tested bacterial strains) [µg/mL]	further results
N=C(N)NN=Cc1ccc(C#Cc2ccc(Cl)cc2)cc1 [Compound 3g, 2-(4-((4-Chlorophenyl)ethynyl)benzylidene)hydrazine-1-carboximidamide]	0.5 (≈ 1.68 µM)	0.25 (≈ 0.842 µM)	0.5 (≈ 1.68 µM)	2 (≈ 6.74 µM)	2 (≈ 6.74 µM)	1 (≈ 3.37 µM)	> 128	0.5 (≈ 1.68 µM)	0.5 (≈ 1.68 µM)	4 (≈ 13.5 µM)	0.5 (≈ 1.68 µM)	1 (≈ 3.37 µM)	4.42 (≈ 14.9 µM)	1.01 (≈ 3.4 µM)	20.9 (≈ 70.3 µM)	little change	rapidly bactericidal	232 to 234		increase in MIC on serial passaging [13]: little change; persistence of bactericidal activity ([15]; 2 × MIC): 12 h; reduction of bacterial count ([15]; 2 × MIC, after 2 h, start 5.5 log10 CFU/mL): > 5 log10 CFU/mL
CCn1cc(C(=O)O)c(=O)c2cc(F)c(N3CCNCC3)cc21 [Norfloxacin, reference compound]	0.125 (≈ 0.391 µM)	2 (≈ 6.26 µM)	1 (≈ 3.13 µM)	0.125 (≈ 0.391 µM)	0.125 (≈ 0.391 µM)	4 (≈ 12.5 µM)	2 (≈ 6.26 µM)	0.125 (≈ 0.391 µM)	16 (≈ 50.1 µM)	1 (≈ 3.13 µM)	0.25 (≈ 0.783 µM)	0.5 (≈ 1.57 µM)				approximately 32 fold	bacteriostatic, not bactericidal			
N=C(N)NN=Cc1ccc(C#CC#Cc2cccc(Br)c2)cc1 [Compound 6i, 2-(4-((3-Bromophenyl)buta-1,3-diyn-1-yl)benzylidene)hydrazine-1-carboximidamide]	128 (≈ 350 µM)	2 (≈ 5.48 µM)	0.5 (≈ 1.37 µM)	64 (≈ 175 µM)	128 (≈ 350 µM)	128 (≈ 350 µM)	> 128	2 (≈ 5.48 µM)	0.5 (≈ 1.37 µM)									196 to 198	≥ 128	
N=C(N)NN=Cc1ccc(C#CC#Cc2ccc(F)cc2)cc1 [Compound 6d, 2-(4-((4-Fluorophenyl)buta-1,3-diyn-1-yl)benzylidene)hydrazine-1-carboximidamide]	4 (≈ 13.1 µM)	> 128	128 (≈ 421 µM)	> 128	> 128	> 128	> 128	64 (≈ 210 µM)	> 128									206 to 210	≥ 128	
N=C(N)NN=Cc1ccc(C#CC#Cc2ccccc2)cc1 [Compound 6a, 2-(4-(Phenylbuta-1,3-diyn-1-yl)benzylidene)hydrazine-1-carboximidamide]	> 128	0.5 (≈ 1.75 µM)	0.5 (≈ 1.75 µM)	128 (≈ 447 µM)	128 (≈ 447 µM)	1 (≈ 3.49 µM)	> 128	0.5 (≈ 1.75 µM)	0.5 (≈ 1.75 µM)	> 64	0.5 (≈ 1.75 µM)	4 (≈ 14 µM)	2.49 (≈ 8.7 µM)	1.63 (≈ 5.69 µM)	13.4 (≈ 46.7 µM)			209 to 212		
N=C(N)NN=Cc1ccc(C#CC#Cc2ccc(Cl)cc2)cc1 [Compound 6g, 2-(4-((4-Chlorophenyl)buta-1,3-diyn-1-yl)benzylidene)hydrazine-1-carboximidamide]	> 128	> 128	128 (≈ 399 µM)	128 (≈ 399 µM)	128 (≈ 399 µM)	> 128	> 128	> 128	> 128									202 to 205	≥ 128	
